Data as given in US20080107625A1, “Inhibitors of Hepatitis C Virus” (Bristol-Myers Squibb Company, priority 2006, published 2008).

Molecular target: T1, HCV NS3/4A protease complex, H77 strain (Hepatitis C virus genotype 1a, UniProt P27958, C1454S/C1711G)
T1 construct: recombinant HCV NS3/4A protease complex (amino acids 1027 to 1711) for these strains; His-tag (inferred from pET21b vector and Ni-NTA purification); made in house; host or cells: Escherichia coli BL21 (DE3), pET21b
Assay: FRET peptide assay to monitor HCV NS3/4A proteolytic activity (H77 strain)
Assay type: biochemical
Conditions: H77 strain (1a genotype)
Source text: HCV NS3 protease complexes, derived from the BMS strain, H77 strain or J4L6S strain, were generated, as described below. These purified recombinant proteins were generated for use in a homogeneous assay (see below) to provide an indication of how effective compounds of the present disclosure would be in inhibiting HCV NS3 proteolytic activity.
The H77 and J4L6S strains were used for production of recombinant NS3/4A protease complexes. DNA encoding the recombinant HCV NS3/4A protease complex (amino acids 1027 to 1711) for these strains were manipulated as described by P. Gallinari et al. (see Gallinari P, Paolini C, Brennan D, Nardi C, Steinkuhler C, De Francesco R. Biochemistry. 38(17):5620-32, (1999)). Briefly, a three-lysine solubilizing tail was added at the 3′-end of the NS4A coding region. The cysteine in the P1 position of the NS4A-NS4B cleavage site (amino acid 1711) was changed to a glycine to avoid the proteolytic cleavage of the lysine tag. Furthermore, a cysteine to serine mutation was introduced by PCR at amino acid position 1454 to prevent the autolytic cleavage in the NS3 helicase domain. […]

T1 sequence (P27958 1027-1711 C1454S/C1711G, one chain of several): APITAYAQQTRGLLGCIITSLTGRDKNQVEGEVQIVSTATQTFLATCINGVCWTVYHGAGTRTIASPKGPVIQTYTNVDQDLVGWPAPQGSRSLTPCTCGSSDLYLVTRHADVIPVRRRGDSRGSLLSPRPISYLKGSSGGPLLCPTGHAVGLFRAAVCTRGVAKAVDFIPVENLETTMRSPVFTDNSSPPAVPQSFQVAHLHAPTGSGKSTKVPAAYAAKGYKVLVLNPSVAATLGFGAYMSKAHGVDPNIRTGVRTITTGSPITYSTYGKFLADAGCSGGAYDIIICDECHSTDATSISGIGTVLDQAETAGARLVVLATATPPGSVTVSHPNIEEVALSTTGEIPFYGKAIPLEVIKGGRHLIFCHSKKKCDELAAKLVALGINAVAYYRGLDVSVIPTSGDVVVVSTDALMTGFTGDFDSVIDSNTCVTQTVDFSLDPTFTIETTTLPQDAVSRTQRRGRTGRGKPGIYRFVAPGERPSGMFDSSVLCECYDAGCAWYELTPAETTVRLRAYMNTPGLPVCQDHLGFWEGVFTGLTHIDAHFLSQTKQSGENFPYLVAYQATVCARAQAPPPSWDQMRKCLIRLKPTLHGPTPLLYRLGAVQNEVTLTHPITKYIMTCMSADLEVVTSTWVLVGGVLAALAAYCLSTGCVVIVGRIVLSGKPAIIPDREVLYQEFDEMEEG

`CC(C)(C)OC(=O)N[C@H]1CN(C2CC2)CCC/C=C\C2C[C@@]2(C(=O)NS(=O)(=O)C2CC2)NC(=O)[C@@H]2C[C@@H](Oc3ccccn3)CN2C1=O` (stereo partly shown) [Compound 1] showed an IC50 of 0.018 µM.
